Assay results as given in ChEMBL document CHEMBL3044992, “Design, synthesis, and docking studies of novel ofloxacin analogues as antimicrobial agents” (2012).
In brackets after ≈: the same amount, converted by molar mass.

Experiments:
Type in all cases: functional
[1] = test system: Staphylococcus epidermidis; experiment: Antibacterial activity against Staphylococcus epidermidis after 24 hr by two-fold serial dilution method
[2] = test system: Staphylococcus aureus; experiment: Antibacterial activity against Staphylococcus aureus after 24 hr by two-fold serial dilution method
[3] = test system: Bacillus subtilis; experiment: Antibacterial activity against Bacillus subtilis after 24 hr by two-fold serial dilution method
[4] = test system: Candida albicans; experiment: Antifungal activity against Candida albicans at 100 ug/ml after 48 hr […]; conditions: read-out: IZ
[5] = test system: Candida albicans; experiment: Antifungal activity against Candida albicans at 50 ug/ml after 48 hr […]; conditions: read-out: IZ
[6] = test system: Candida albicans; experiment: Antifungal activity against Candida albicans at 25 ug/ml after 48 hr […]; conditions: read-out: IZ
[7] = test system: Pseudomonas aeruginosa; experiment: Antibacterial activity against Pseudomonas aeruginosa after 24 hr by two-fold serial dilution method
[8] = test system: Klebsiella pneumoniae; experiment: Antibacterial activity against Klebsiella pneumoniae after 24 hr by two-fold serial dilution method
[9] = test system: Escherichia coli; experiment: Antibacterial activity against Escherichia coli after 24 hr by two-fold serial dilution method

SMILES	MIC [1] [µg/mL]	MIC [2] [µg/mL]	MIC [3] [µg/mL]	zone of inhibition at 100 µg/mL [4] [mm]	zone of inhibition at 50 µg/mL [5] [mm]	zone of inhibition at 25 µg/mL [6] [mm]	MIC [7] [µg/mL]	MIC [8] [µg/mL]	MIC [9] [µg/mL]
CC1COc2c(N3CCN(C)CC3)c(F)cc3c(=O)c(-c4nn(CCC(=O)Cc5cccc([N+](=O)[O-])c5)c(=S)n4N)cn1c23 (stereo not given)	0.5 (≈ 0.803 µM)	0.25 (≈ 0.401 µM)	0.5 (≈ 0.803 µM)	21	18	16	0.25 (≈ 0.401 µM)	0.12 (≈ 0.193 µM)	1 (≈ 1.61 µM)
CC1COc2c(N3CCN(C)CC3)c(F)cc3c(=O)c(C(=O)N/N=C/c4ccccc4Cl)cn1c23 (stereo not given)	0.5 (≈ 1 µM)	0.125 (≈ 0.251 µM)	0.5 (≈ 1 µM)	22	18	16	0.25 (≈ 0.502 µM)	0.12 (≈ 0.241 µM)	0.5 (≈ 1 µM)
COc1ccc(/C=N/NC(=O)c2cn3c4c(c(N5CCN(C)CC5)c(F)cc4c2=O)OCC3C)cc1 (stereo not given)	0.25 (≈ 0.507 µM)	0.125 (≈ 0.253 µM)	0.5 (≈ 1.01 µM)	23	20	18	0.5 (≈ 1.01 µM)	0.5 (≈ 1.01 µM)	0.5 (≈ 1.01 µM)
CC1COc2c(N3CCN(C)CC3)c(F)cc3c(=O)c(C(=O)N/N=C/c4ccccc4O)cn1c23 (stereo not given)	0.25 (≈ 0.521 µM)	0.25 (≈ 0.521 µM)	0.5 (≈ 1.04 µM)	21	18	15	0.12 (≈ 0.25 µM)	1 (≈ 2.09 µM)	1 (≈ 2.09 µM)
CC1COc2c(N3CCN(C)CC3)c(F)cc3c(=O)c(C(=O)NNC=O)cn1c23 (stereo not given)	0.25 (≈ 0.62 µM)	0.25 (≈ 0.62 µM)	0.5 (≈ 1.24 µM)	23	21	18	1 (≈ 2.48 µM)	1 (≈ 2.48 µM)	1 (≈ 2.48 µM)
CC1COc2c(N3CCN(C)CC3)c(F)cc3c(=O)c(C(=O)N/N=C/c4cccc([N+](=O)[O-])c4)cn1c23 (stereo not given)	0.25 (≈ 0.492 µM)	0.25 (≈ 0.492 µM)	0.5 (≈ 0.983 µM)	20	17	15	0.5 (≈ 0.983 µM)	0.5 (≈ 0.983 µM)	0.5 (≈ 0.983 µM)
CC1COc2c(N3CCN(C)CC3)c(F)cc3c(=O)c(C(=O)N/N=C/c4ccccc4)cn1c23 (stereo not given)	0.25 (≈ 0.539 µM)	0.125 (≈ 0.27 µM)	0.5 (≈ 1.08 µM)	21	18	15	1 (≈ 2.16 µM)	0.25 (≈ 0.539 µM)	1 (≈ 2.16 µM)
CC1COc2c(N3CCN(C)CC3)c(F)cc3c(=O)c(-c4nn(CCC(=O)c5ccccc5)c(=S)o4)cn1c23 (stereo not given)	0.5 (≈ 0.91 µM)	0.25 (≈ 0.455 µM)	0.5 (≈ 0.91 µM)	22	19	16	2 (≈ 3.64 µM)	0.25 (≈ 0.455 µM)	1 (≈ 1.82 µM)
CC1COc2c(N3CCN(C)CC3)c(F)cc3c(=O)c(-c4nn(CCC(=O)c5ccc(N)cc5)c(=S)o4)cn1c23 (stereo not given)	0.5 (≈ 0.886 µM)	0.25 (≈ 0.443 µM)	0.5 (≈ 0.886 µM)	21	18	17	0.5 (≈ 0.886 µM)	0.5 (≈ 0.886 µM)	0.25 (≈ 0.443 µM)
CC(=O)CCn1nc(-c2cn3c4c(c(N5CCN(C)CC5)c(F)cc4c2=O)OCC3C)oc1=S (stereo not given)	0.25 (≈ 0.513 µM)	0.25 (≈ 0.513 µM)	0.5 (≈ 1.03 µM)	22	18	15	0.25 (≈ 0.513 µM)	0.12 (≈ 0.246 µM)	0.25 (≈ 0.513 µM)
CC(=O)CCn1nc(-c2cn3c4c(c(N5CCN(C)CC5)c(F)cc4c2=O)OCC3C)n(N)c1=S (stereo not given)	0.5 (≈ 0.997 µM)	3.12 (≈ 6.23 µM)	0.5 (≈ 0.997 µM)	22	18	16	0.5 (≈ 0.997 µM)	0.12 (≈ 0.239 µM)	0.5 (≈ 0.997 µM)
CC1COc2c(N3CCN(C)CC3)c(F)cc3c(=O)c(-c4nn(CCC(=O)c5ccccc5O)c(=S)n4N)cn1c23 (stereo not given)	0.5 (≈ 0.863 µM)	0.25 (≈ 0.431 µM)	0.5 (≈ 0.863 µM)	21	17	15	0.5 (≈ 0.863 µM)	0.12 (≈ 0.207 µM)	1 (≈ 1.73 µM)
CC1COc2c(N3CCN(C)CC3)c(F)cc3c(=O)c(C(=O)O)cn1c23 (stereo not given) [OFLOXACIN]	0.5 (≈ 1.38 µM)	0.25 (≈ 0.692 µM)	1 (≈ 2.77 µM)	28	26	21	–	0.06 (≈ 0.166 µM)	–
